From ChEMBL document CHEMBL3785053, “Synthesis and screening of ursolic acid-benzylidine derivatives as potential anti-cancer agents” (Eur J Med Chem, 2016)
pIC50: −log10 of the molar value. Activity calls are given as the source filed them. The calls are words filed in the database; no cut-off is given here.

Assays:
[1] = Upregulation of Bax expression in human HCT116 cells at 20 uM after 24 hrs by Western blotting method; format: functional, cell-based; details: HCT-116
A549 [2] = test: Cytotoxicity against human A549 cells after 48 hrs by MTT assay; format: functional, cell-based; details: A549, 48 h
[3] = Induction of apoptosis in human HCT116 cells assessed as upregulation of caspase-3 expression at 20 uM after 24 hrs by Western blotting method; format: functional, cell-based; details: HCT-116
MCF7 [4] = test: Cytotoxicity against human MCF7 cells after 48 hrs by MTT assay; format: functional, cell-based; details: MCF7, 48 h
HCT-116 [5] = test: Induction of apoptosis in human HCT116 cells at 20 uM after 24 hrs by Hoechst 33258 staining-based fluorescence microscopy; format: functional, cell-based
[6] = Cytotoxicity against human THP1 cells at 50 uM after 48 hrs by MTT assay; format: functional; details: THP-1, 48 h, read-out: GI
[7] = Cytotoxicity against human FR2 cells at 50 uM after 48 hrs by MTT assay; format: cell-based; details: read-out: GI
HCT-116 [8] = test: Induction of apoptosis in human HCT116 cells assessed as membrane blebbing at 10 to 20 uM after 24 hrs by acridine orange/ethidium bromide staining-based fluorescence microscopy; format: functional, cell-based
HCT-116 [9] = test: Induction of cell cycle arrest in human HCT116 cells assessed as accumulation at G1 phase at 20 uM after 48 hrs by propidium iodide staining-based flow cytometry (reference value: 41.51%); format: functional
[10] = Induction of apoptosis in human HCT116 cells assessed as upregulation of caspase-9 expression at 20 uM after 24 hrs by Western blotting method; format: functional, cell-based; details: HCT-116
[11] = Cytotoxicity against human FR2 cells after 48 hrs by MTT assay; format: cell-based; details: FR2, 48 h
HCT-116 [12] = test: Induction of apoptosis in human HCT116 cells assessed as cell budding at 10 to 20 uM after 24 hrs by acridine orange/ethidium bromide staining-based fluorescence microscopy; format: functional
HCT-116 [13] = test: Induction of apoptosis in human HCT116 cells at 20 uM after 24 hrs by JC-1 staining-based fluorescence microscopy; format: functional, cell-based
HCT-116 [14] = test: Induction of apoptosis in human HCT116 cells assessed as pycnosis at 10 to 20 uM after 24 hrs by acridine orange/ethidium bromide staining-based fluorescence microscopy; format: functional, cell-based
[15] = Cytotoxicity against human HCT116 cells at 50 uM after 48 hrs by MTT assay; format: functional; details: HCT-116, 48 h, read-out: GI
[16] = Cytotoxicity against human HCT116 cells after 48 hrs by MTT assay; format: functional, cell-based; details: HCT-116, 48 h
MCF7 [17] = test: Cytotoxicity against human MCF7 cells at 50 uM after 48 hrs by MTT assay; format: functional; details: MCF7, 48 h, read-out: GI
[18] = Cytotoxicity against human THP1 cells after 48 hrs by MTT assay; format: functional, cell-based; details: THP-1, 48 h
A549 [19] = test: Cytotoxicity against human A549 cells at 50 uM after 48 hrs by MTT assay; format: functional; details: A549, 48 h, read-out: GI
[20] = Downregulation of Bcl2 expression in human HCT116 cells at 20 uM after 24 hrs by Western blotting method; format: functional, cell-based; details: HCT-116
HCT-116 [21] = test: Induction of cell cycle arrest in human HCT116 cells assessed as accumulation at G2 phase at 20 uM after 48 hrs by propidium iodide staining-based flow cytometry (reference value: 32.43%); format: functional

Compound: C[C@H]1[C@H](C)CC[C@]2(C(=O)O)CC[C@]3(C)C(=CC[C@@H]4[C@@]5(C)C/C(=C\c6cc(O)ccc6O)C(=O)C(C)(C)[C@@H]5CC[C@]43C)[C@H]12
- Activity [1]: Active
- pIC50 (A549 [2]): 6.26
- Activity [3]: Active
- pIC50 (MCF7 [4]): 5.26
- Activity (HCT-116 [5]): Active
- inhibition of growth at 50 µM [6]: 94%
- inhibition at 48 h, 50 µM [7]: 91%
- Activity (HCT-116 [8]): Active
- Activity (HCT-116 [9]): 65.58%
- Activity [10]: Active
- pIC50 [11]: 6.10
- Activity (HCT-116 [12]): Active
- Activity (HCT-116 [13]): Active
- Activity (HCT-116 [14]): Active
- inhibition of growth at 50 µM [15]: 99%
- pIC50 [16]: > 7.00
- inhibition of growth at 50 µM (MCF7 [17]): 100%
- pIC50 [18]: 6.05
- inhibition of growth at 50 µM (A549 [19]): 93%
- Activity [20]: Active
- Activity (HCT-116 [21]): 11.65%
